16 compounds from patent EP0751768B1, “ANTI-VIRAL AND ANTI-CANCER AGENT” (Radopath Pharmaceuticals International Limited, priority 1994, dated 1995) can be followed below.

Series [1] concerns HIV-1RF. Kind of series: microbe, parasite or virus in culture. It counts as cell-based, human immunodeficiency virus HIV-1RF. Conditions: read-out: IC50.
Series [2] concerns HIV-I IIIB. Kind of series: Acute infection assay, HIV core antigen ELISA (HIV-I IIIB). It counts as cell-based. Background: An ELISA detects its analyte on a solid surface through an enzyme-linked reagent.
For series [3], the system named is uninfected cells.
Series [4] has as its system B16F1-murine melanoma. It counts as in vivo.
Series [5] deals with MAC15A (murine adenocarcinoma colon). It is filed as in vivo, NMR1 mice.
Series [6] can be described thus: in vitro. The following applies: CC50 (Toxicity), listed under Against HIV-I IIIB; single determinations.
The test system of series [7] is M5076-reticulum cell sarcoma. In words: Anti-tumour activity against M5076 solid tumour (tumour weight inhibition). It counts as in vivo, murine. As to the method:
The in vivo anti-tumour responses of the compound according to the invention were assessed against the ascitic tumours, MAC15A murine colon adenocarcinoma and various solid tumour models. The MAC15A ascites tumour cells were transplanted into male NMR1 mice by ip innoculation at a cell density of 1 x 10^5 cells in 200µl buffer (Table I). The solid tumour models included the MAC13 and MAC16 murine colon adenocarcinomas, the B16 F1 murine melanoma and the M5076 reticulum cell sarcoma.
Treatment commenced 3 days after ip transplant or, in the case of solid tumours such as MAC13 and MAC16, treatment commenced when average tumour volumes reached 40mm^3.
The animals were located in both cases into groups of 5 to 8 animals.
The animals were sacrificed after 12 days or when tumours ulcerated, tumour volume exceeded 1000mm^3 or loss of body weight exceeded 50%.
Except where otherwise stated, the compound used was dissolved in DMSO and diluted in sterile distilled water, at appropriate concentrations before administration in a solvent volume of 200µl. Anti-tumour responses were obtained by comparing the median survival times or tumour growth inhibition against solvent controls.
% Tumour Weight Inhibition:-

[8] abbreviates: Against HIV-I IIIB, single determinations, read-out: IC50 (Antiviral).
Where [9] appears, read: read-out: CC50 (Toxicity), listed under Against HIV-I IIIB, single determinations.
[10] abbreviates: Against HIV-I IIIB, average of the lines above, read-out: IC50 (Antiviral), Average.
Setting [11] is: 100mg kg^-1 ip per day, schedule days 1,2,3,4,5, median, T-test group, C-solvent control, 5 animals per group.
Setting [12] is: read-out: CC50 (Toxicity), Average, listed under Against HIV-I IIIB, average of the lines above.
The mark [13] stands for this setting: control compounds in infected cells.

Structures are written as SMILES. “And” between values parts separate entries of the source, which are not always exact repeats. Identical values can stand only once. Like-named read-outs stand apart in the source and are kept apart here.

Consider `Cc1cn([C@H]2C[C@H](N=[N+]=[N-])[C@@H](CO)O2)c(=O)[nH]c1=O` [AZT], for which the IC50 (in general, the concentration that inhibits the measured activity by half) in series [1] was 0.01 µM and 0.02 µM.
Consider `NC(=O)c1cc([N+](=O)[O-])c(Cl)c([N+](=O)[O-])c1Cl` [C2], for which the concentration for half-maximal inhibition (IC50) in series [2] (setting [8]) stood at 2 µM. In addition, in series [3] (setting [9]), the CC50 (as a rule, the concentration that lowers cell viability or growth by half) was 70 µM.
Take `O=C(O)c1cc([N+](=O)[O-])c(Cl)c([N+](=O)[O-])c1` [C4, 4-chloro-3,5-dinitrobenzoic acid]: the half-maximal inhibitory concentration (IC50) is 35 µM in series [2] (setting [10]); 40 µM and 30 µM in series [2] (setting [8]); 30 µM in series [1] (Table 7, 50% reduction in HIV core antigen levels, 72 hours post-infection). Besides, the “% Tumour Weight Inhibition” value in series [4] (50 mg/kg per day ip, days 1,5, 12 days after sc transplant, corn oil) is 10%; in series [4] (75 mg/kg per day ip, days 1,5, 12 days after sc transplant, corn oil), 41%; in series [4] (100 mg/kg per day ip, days 1,5, 12 days after sc transplant, corn oil) it was 39%. The T/C% in series [5] (setting [11]) was 271%. The same compound had a CD50 in series [3] (Table 7, 50% inhibition of cells by 14C protein hydrolysate uptake) of 70µm. Further, the CC50 was 85 µM in series [3] (setting [12]); 100 µM and 70 µM in series [3] (setting [9]).
Consider `NC(=O)c1cc([N+](=O)[O-])c(Cl)c([N+](=O)[O-])c1` [C5], for which the half-inhibitory concentration (IC50) in series [2] (setting [8]) is 5 µM. Also, the CC50 in series [3] (setting [9]) came out at 50 µM.
`COC(=O)c1cc([N+](=O)[O-])c(Cl)c([N+](=O)[O-])c1` [C6, 4-chloro-3,5-dinitrobenzoic acid methyl ester]: the “SI (Selectivity Index)” value in series [2] turned out to be 12. In addition, the “% Tumour Weight Inhibition” value in series [4] (mouse, in vivo) is 67% and 43%. The compound also yielded a half-maximal cytotoxic concentration (CC50) in series [3] of 60 µM.
For the compound `O=C(O)c1cc([N+](=O)[O-])cc([N+](=O)[O-])c1Cl` [C7, 2-chloro-3,5-dinitrobenzoic acid], the 50% inhibitory concentration (IC50) in series [2] (setting [10]) was 22 µM. Further, the CC50 at 72 h in series [6] turned out to be 35 µM. Moreover, in series [3] (setting [12]), the CC50 was more than 175 µM.
As for `COC(=O)c1cc([N+](=O)[O-])cc([N+](=O)[O-])c1Cl` [C8, 2-chloro-3,5-dinitrobenzoic acid methyl ester], the “SI (Selectivity Index)” value in series [2] is 5. Also, it took 60 µM to reach half-maximal cytotoxicity in series [3] (CC50).
In series [3], `O=C(O)c1ccc(Cl)c([N+](=O)[O-])c1` [C9, 4-chloro-3-nitrobenzoic acid] had a cytotoxic concentration (CC50) of more than 200 µM.
`O=C(O)c1ccc([N+](=O)[O-])cc1Cl` [C10, 2-chloro-4-nitrobenzoic acid] returned a CC50 in series [3] of more than 200 µM.
Still for that read-out and setting: in the case of `O=C(O)c1ccc(Cl)c(Cl)c1` [C11, 3,4-dichlorobenzoic acid] it was more than 200 µM.
Take `O=C(O)c1cc(Cl)ccc1Cl` [C12, 2,5-dichlorobenzoic acid]: the IC50 in series [2] (Human immunodeficiency virus 1, IIIB, read-out: IC50 (Antiviral)) is more than 200 µM. In series [5] (mouse, in vivo, ip), the T/C% was found to be 171%. The half-maximal cytotoxic concentration (CC50) in series [3] is more than 200 µM.
Turning to `O=C(O)c1ccc([N+](=O)[O-])cc1[N+](=O)[O-]` [C28, 2,4-dinitrobenzoic acid], the T/C% in series [5] (setting [11]) came out at 100%.
On the same count and under the same terms, as for `O=C(O)c1cc([N+](=O)[O-])cc([N+](=O)[O-])c1` [C29, 3,5-dinitrobenzoic acid], the figure is 100%.
Regarding `CC(C)(C)NC(=O)[C@@H]1C[C@@H]2CCCC[C@@H]2CN1C[C@@H](O)[C@H](Cc1ccccc1)NC(=O)[C@H](CC(N)=O)NC(=O)c1ccc2ccccc2n1` [compound 8959], the IC50 in series [1] (setting [13]) came to 0.001 µM.
On the same count and under the same terms, as for `Nc1ccn([C@H]2CC[C@@H](CO)O2)c(=O)n1` [ddC], the figure is 0.2 µM.
`NC(=O)c1cc([N+](=O)[O-])c(Cl)c([N+](=O)[O-])c1Cl` [the amide]: the “anti-tumour activity (in words)” value in series [7] is recorded as “without anti-tumour activity”. The compound further returned an increase in toxicity in series [7] (relative to 2,4-dichloro-3,5-dinitrobenzoic acid) of 10 fold.
